Experimental data from patent publication US10231956B2, “3-(1H-pyrrolo[3,2-C]pyridin-2-YL)-1 H-pyrazolo[4,3-B]pyridines and therapeutic uses thereof” (Samumed, LLC, priority 2015, dated 2019).

Key:
Format in all cases: cell-based
[1] = system: primary human fibroblasts derived from IPF patients (LL29 cells); assay: Inhibition of fibrotic process: αSMA staining in TGF-β1 treated LL29 fibroblasts; conditions: Fibroblast, 96 h, TGF-β1 20 ng/mL, 4 days, % cells positive for αSMA
Text: Representative compounds were screened using primary human fibroblasts (derived from IPF patients) treated with TGF-β1 to determine their ability to inhibit the fibrotic process.
Human Fibroblast Cell Culture: Primary human fibroblasts derived from IPF patients (LL29 cells) [^1Xiaoqiu Liu, et. al., “Fibrotic Lung Fibroblasts Show Blunted Inhibition by cAMP Due to Deficient cAMP Response Element-Binding Protein Phosphorylation”, Journal of Pharmacology and Experimental Therapeutics (2005), 315(2), 678-687; ^2Watts, K. L., et. al., “RhoA signaling modulates cyclin D1 expression in human lung fibroblasts; implications for idiopathic pulmonary fibrosis”, Respiratory Research (2006), 7(1), 88] were obtained from American Type Culture Collection (ATCC) and expanded in F12 medium supplemented with 15% Fetal Bovine Serum and Penicillin/Streptomycin.
Compound Screening: Each compound was dissolved in DMSO as a 10 mM stock and used to prepare compound source plates. Serial dilution (1:2, 11-point dose-response curves from […]) and compound transfer was performed using the ECHO 550 (Labcyte, Sunnyvale, Calif.) into 384-well clear bottom assay plates (Greiner Bio-One) with appropriate DMSO backfill for a final DMSO concentration of 0.1%. LL29 cells are plated at 1,500 cells/well in 80 μL/well F12 medium supplemented with 1% Fetal Bovine Serum. One hour after addition of the cells, TGF-β1 (Peprotech; 20 ng/mL) was added to the plates to induce fibrosis (ref. 1 and 2 above). Wells treated with TGF-β1 and containing DMSO were used as controls. Cells were incubated at 37° C. and 5% CO2 for 4 days. Following incubation for 4 days, SYTOX green nucleic acid stain (Life Technologies [Thermo Fisher Scientific]) was added to the wells at a final concentration of 1 μM and incubated at room temperature for 30 min. Cells were then fixed using 4% formaldehyde (Electron Microscopy Sciences), washed 3 times with PBS followed by blocking and permeabilization using 3% Bovine Serum Albumin (BSA; Sigma) and 0.3% Triton X-100 (Sigma) in PBS. Cells were then stained with antibody specific to α-smooth muscle actin (αSMA; Abcam) (ref. 1 and 2 above) in 3% Bovine Serum Albumin (BSA; Sigma) and 0.3% Triton X-100 (Sigma) in PBS, and incubated overnight at 4° C. Cells were then washed 3 times with PBS, followed by incubation with Alexa Flor-647 conjugated secondary antibody (Life Technologies [Thermo Fisher Scientific]) and DAPI at room temperature for 1 hour. Cells were then washed 3 times with PBS and plates were sealed for imaging. αSMA staining was imaged by excitation at 630 nm and emission at 665 nm and quantified using the Compartmental Analysis program on the CellInsight CX5 (Thermo Scientific). Dead or apoptotic cells were excluded from analysis based on positive SYTOX green staining. % of total cells positive for αSMA were counted in each well and normalized to the average of 11 wells treated with TGF-β1 on the same plate using Dotmatics' Studies Software. The normalized averages (fold change over untreated) of 3 replicate wells for each compound concentration were used to create dose-responses curves and EC50 values were calculated using non-linear regression curve fit in the Dotmatics' Studies Software. For EC50 of >10 μM, the percent inhibition at 10 μM is provided.

[2] = system: IL-6; assay: IL-6 inhibition in LPS-stimulated THP-1 cells (HTRF); conditions: Homo sapiens, LPS 500 ng/mL, 22 hours, IL6 HTRF
Description: Human Monocyte Cell Culture: Human monocyte cell line (THP-1 cells; Catalog # TIB-202, ATCC, Manassas, Va.) were cultured in Roswell Park Memorial Institute (RPMI) 1640 Medium (Catalog #21870-100, Buffalo, N.Y.) with 1% L-glutamine, 1% HEPES, 1% Sodium Pyruvate, 2% Sodium Bicarbonate supplemented with 100 units/mL penicillin, 50 μg/mL streptomycin, 2-mercaptoethanol (0.05 mM) [basal medium] and 10% fetal bovine serum (Catalog #16140089, Life Technologies, Carlsbad, Calif.) at 37° C. and 5% CO2.
Compound Screening: THP-1 cells were cultured in basal media with 1% FBS for 24 hours before the start of the assay. Each compound was dissolved in DMSO as a 10 mM stock and used to prepare compound source plates. Serial dilution (1:3, 10-point dose-response curves starting from 1 μM) and compound transfer was performed using the ECHO 550 (Labcyte, Sunnyvale, Calif.) into 384-well white low volume assay plates (Greiner Bio-One) with appropriate DMSO backfill for a final DMSO concentration of 0.1%. THP-1 cells were plated at 5000 cells/well in the 384-well plates and incubated at 37° C. for 2 h. 500 ng/mL of LPS was added after 2 hours and cells were incubated for another 22 hours at 37° C. Plates were spun in a centrifuge for 1 minute at 10,000 rpm and a mixture of anti-IL6 XL665, and anti-IL6 Cryptate diluted in reconstitution buffer (Cisbio Inc.) was added to each well. Following incubation for 3 hrs at room temperature, Homogeneous Time-Resolved Fluorescence (HTRF) was measured using the Envision (Perkin Elmer) at 665 nm and […]. The ratio of fluorescence at 665 nm to 620 nm was used as a readout for IL6 quantification. All samples were processed in duplicate. Readings were normalized to DMSO treated cells and normalized activities were utilized for EC50 calculations using the dose-response log (inhibitor) vs. response-variable slope (four parameters) nonlinear regression feature available in GraphPad Prism 5.0 (or Dotmatics). For EC50 of >10 μM, the percent inhibition at 10 μM is provided.

[3] = system: SW480 colon cancer cells; assay: Cell viability assay (CellTiter-Blue) in SW480 colon cancer cells; conditions: Homo sapiens, 96 h, four days, CellTiter-Blue
Description: Representative compounds were screened using the following assay procedure to assess the effect on cell viability as described below.
Each compound was dissolved in DMSO as a 10 mM stock and used to prepare compound source plates. Serial dilution (1:3, 8-point dose-response curves from 10 μM to 0.0045 μM) and compound transfer was performed using the ECHO 550 (Labcyte, Sunnyvale, Calif.) into 96-well clear bottom, black-walled plates (Corning-Costar).
Approximately 2×10^3 SW480 colon cancer cells were seeded into each well and allowed to incubate in the presence or absence of compound for four days at 37° C./5% CO2. Eight replicates of DMSO-treated cells served as controls and cells treated with compound were performed in duplicate.
After incubation, 20 μL of CellTiter-Blue (Promega) was added to each well allowed to incubate for approximately 3 hours. This reagent was a buffered solution which contains resazurin, metabolically active cells were able to reduce rezarurin (blue) into resorufin (pink) which was highly fluorescent. This measured fluorescence was used as a readout for cell viability.
After incubation, the plates were read at Ex 560 nm Em 590 nm (Cytation 3, BioTek). Dose-response curves were generated and EC50 concentration values were calculated using non-linear regression curve fit in the GraphPad Prism (San Diego, Calif.) or Dotmatics' Studies Software (Bishops Stortford, UK). For EC50 of >10 μM, the percent inhibition at 10 μM is provided.

[4] = system: Wnt activity (Sp5-Luc reporter, SW480 colon carcinoma cells); assay: Sp5-Luc reporter gene screening assay for Wnt activity in SW480 cells; conditions: Homo sapiens, luminescence, overnight incubation
Text: The screening assay for Wnt activity is described as follows. Reporter cell lines can be generated by stably transducing cancer cell lines (e.g., colon cancer) or primary cells (e.g., IEC-6 intestinal cells) with a lentiviral construct that includes a Wnt-responsive promoter driving expression of the firefly luciferase gene.
SW480 colon carcinoma cells were transduced with a lentiviral vector expressing luciferase with a human Sp5 promoter consisting of a sequence of eight TCF/LEF binding sites. SW480 cells stably expressing the Sp5-Luc reporter gene and a hygromycin resistance gene were selected by treatment with 150 μg/mL of hygromycin for 7 days. These stably transduced SW480 cells were expanded in cell culture and used for all further screening activities. Each compound was dissolved in DMSO as a 10 mM stock and used to prepare compound source plates. Serial dilution (1:3, 10-point dose-response curves starting from 10 μM) and compound transfer was performed using the ECHO 550 (Labcyte, Sunnyvale, Calif.) into 384-well white solid bottom assay plates (Greiner Bio-One) with appropriate DMSO backfill for a final DMSO concentration of 0.1%. For Sp5-Luc reporter gene assays, the cells were plated at 4,000 cells/well in 384-well plates with medium containing 1% fetal bovine serum and incubated overnight at 37° C. and 5% CO2. Following incubation, 20 μl of BrightGlo luminescence reagent (Promega) was added to each well of the 384-well assay plates. The plates were placed on an orbital shaker for 2 min and then luminescence was quantified using the Envision (Perkin Elmer) plate reader. Readings were normalized to DMSO only treated cells, and normalized activities were utilized for EC50 calculations using the dose-response log (inhibitor) vs. response-variable slope (four parameters) nonlinear regression feature available in GraphPad Prism 5.0 (or Dotmatics). For EC50 of >10 μM, the percent inhibition at 10 μM is provided.

`Cc1ccncc1-c1ccc2[nH]nc(-c3cc4c(-c5cccs5)nccc4[nH]3)c2n1` [Compound 341, 5-(4-Methylpyridin-3-yl)-3-(4-(thiophen-2-yl)-1H-pyrrolo[3,2-c]pyridin-2-yl)-1H-pyrazolo[4,3-b]pyridine] was tested, and the EC50 [1] was 621 nM, the EC50 [2] was 5380 nM and the EC50 [3] was 577 nM. For the same compound, the EC50 [4] was 1100 nM.
